Experimental data as given in PubChem BioAssay AID248 (DTP/NCI, 2004).
“And” between values parts separate entries of the source, which are not always exact repeats. Equal values may be shown once. Toxic doses and inconclusive results are not listed. Rule as the data show it: active = T/C of 150% or more; inactive = T/C below 125%.

System: L1210 leukemia ip in BDF1 mice, survival T/C
Experiment: NCI In Vivo Anticancer Drug Screen. Data for tumor model L1210 Leukemia (intraperitoneal) in B6D2F1 (BDF1) mice
Conditions: endpoint: mean survival time, higher = longer survival
Outline: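 Mice bearing the transplanted tumor received compound or vehicle. Survival of the treated group was divided by that of the vehicle-treated control group to give the ratio.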

[1] = dose: 100.0 mg/kg/injection, schedule: Q04DX003 (ip), vehicle: saline
[2] = dose: 100.0 mg/kg/injection, schedule: Q01DX009 (ip), vehicle: Klucel (hydroxypropylcellulose) (HPC)
[3] = dose: 200.0 mg/kg/injection, schedule: Q01DX009 (ip), vehicle: Klucel (hydroxypropylcellulose) (HPC)
[4] = dose: 50.0 mg/kg/injection, schedule: Q01DX001 (ip), vehicle: carboxymethylcellulose (CMC)
[5] = dose: 100.0 mg/kg/injection, schedule: Q01DX001 (ip), vehicle: carboxymethylcellulose (CMC)
[6] = dose: 100.0 mg/kg/injection, schedule: Q04DX003 (ip), vehicle: saline with Tween-80
[7] = dose: 200.0 mg/kg/injection, schedule: Q01DX001 (ip), vehicle: carboxymethylcellulose (CMC)
[8] = dose: 200.0 mg/kg/injection, schedule: Q04DX003 (ip), vehicle: saline with Tween-80
[9] = dose: 400.0 mg/kg/injection, schedule: Q01DX001 (ip), vehicle: carboxymethylcellulose (CMC)
[10] = dose: 400.0 mg/kg/injection, schedule: Q04DX003 (ip), vehicle: saline with Tween-80
[11] = dose: 25.0 mg/kg/injection, schedule: Q01DX009 (ip), vehicle: saline
[12] = dose: 50.0 mg/kg/injection, schedule: Q01DX009 (ip), vehicle: saline

Measured: T/C

Cc1ccc(N=N/C(=N\Nc2ccc(C)cc2)[N+](=O)[O-])cc1
inactive: dose: 75.0 mg/kg/injection, schedule: Q01DX001 (ip), vehicle: acetone 90 % of control | dose: 150.0 mg/kg/injection, schedule: Q01DX001 (ip), vehicle: acetone 94 % of control and 86 % of control and 89 % of control | dose: 300.0 mg/kg/injection, schedule: Q01DX001 (ip), vehicle: acetone 93 % of control and 87 % of control and 88 % of control

NC(N)=N/N=C/NN/C=N/N=C(N)N
inactive: dose: 15.0 mg/kg/injection, schedule: Q01DX Z (ip), vehicle: saline 93 % of control | dose: 30.0 mg/kg/injection, schedule: Q01DX Z (ip), vehicle: saline 104 % of control | dose: 60.0 mg/kg/injection, schedule: Q01DX Z (ip), vehicle: saline 115 % of control | dose: 120.0 mg/kg/injection, schedule: Q01DX Z (oral), vehicle: saline 95 % of control

O=CN(Cc1cnccn1)Cc1cnccn1
inactive: dose: 100.0 mg/kg/injection, schedule: Q01DX009 (ip), vehicle: saline 96 % of control | [1] 93 % of control | dose: 200.0 mg/kg/injection, schedule: Q01DX009 (ip), vehicle: saline 98 % of control | dose: 200.0 mg/kg/injection, schedule: Q04DX003 (ip), vehicle: saline 96 % of control | dose: 400.0 mg/kg/injection, schedule: Q01DX009 (ip), vehicle: saline 94 % of control | dose: 400.0 mg/kg/injection, schedule: Q04DX003 (ip), vehicle: saline 96 % of control

CNC(=O)Oc1ccccc1C(Cl)(Cl)Cl
inactive: dose: 50.0 mg/kg/injection, schedule: Q01DX009 (ip), vehicle: Klucel (hydroxypropylcellulose) (HPC) 97 % of control | [2] 101 % of control | [3] 112 % of control

C/C(CCl)=N\Nc1ccc([N+](=O)[O-])cc1[N+](=O)[O-]
inactive: dose: 100.0 mg/kg/injection, schedule: Q01DX001 (ip), vehicle: saline with Tween-80 101 % of control | dose: 200.0 mg/kg/injection, schedule: Q01DX001 (ip), vehicle: saline with Tween-80 98 % of control

CCCCCCCCOB(OCCCCCCCC)OCCCCCCCC
inactive: [4] 96 % of control | [5] 100 % of control | dose: 100.0 mg/kg/injection, schedule: Q01DX009 (ip), vehicle: saline with Tween-80 96 % of control | [6] 98 % of control | [7] 96 % of control | dose: 200.0 mg/kg/injection, schedule: Q01DX009 (ip), vehicle: saline with Tween-80 95 % of control | [8] 94 % of control | [9] 100 % of control

CCCCCCCCCN(C)C(C)=O
inactive: dose: 75.0 mg/kg/injection, schedule: Q01DX001 (ip), vehicle: carboxymethylcellulose (CMC) 94 % of control | dose: 150.0 mg/kg/injection, schedule: Q01DX001 (ip), vehicle: carboxymethylcellulose (CMC) 91 % of control | dose: 300.0 mg/kg/injection, schedule: Q01DX001 (ip), vehicle: carboxymethylcellulose (CMC) 96 % of control

C=C(C)C(=O)OCC1CO1 (stereo unspecified)
inactive: dose: 50.0 mg/kg/injection, schedule: Q01DX Z (ip), vehicle: other 90 % of control | dose: 100.0 mg/kg/injection, schedule: Q01DX Z (ip), vehicle: other 95 % of control | dose: 200.0 mg/kg/injection, schedule: Q01DX Z (ip), vehicle: other 107 % of control

COc1ccc(COC(=O)Oc2ccc(Cl)cc2)cc1OC
inactive: [6] 96 % of control | [8] 96 % of control | [10] 101 % of control

C[N+](C)(CCC#N)Cc1ccc(C[N+](C)(C)CCC#N)cc1
inactive: dose: 5.0 mg/kg/injection, schedule: Q01DX001 (ip), vehicle: saline 90 % of control | dose: 10.0 mg/kg/injection, schedule: Q01DX001 (ip), vehicle: saline 95 % of control | dose: 20.0 mg/kg/injection, schedule: Q01DX001 (ip), vehicle: saline 95 % of control

CCCCCC(CN(C)C)C(=O)/C=C/c1c(Cl)cccc1Cl (stereo unspecified)
inactive: dose: 25.0 mg/kg/injection, schedule: Q01DX009 (ip), vehicle: Klucel (hydroxypropylcellulose) (HPC) 106 % of control

O=C1N=C2C=CC=CN2CC1O (stereo unspecified)
inactive: [6] 88 % of control | [8] 89 % of control | [10] 89 % of control

C#CC1(OC(N)=O)CCCCC1
inactive: [2] 98 % of control | [3] 91 % of control | dose: 400.0 mg/kg/injection, schedule: Q01DX009 (ip), vehicle: Klucel (hydroxypropylcellulose) (HPC) 98 % of control

O=c1[nH]c(-c2ccccc2)ncc1OCc1ccccc1
inactive: [4] 91 % of control | [5] 100 % of control | [7] 96 % of control | [9] 89 % of control

CCc1ncc(C(C)(O)c2ccc(Cl)cc2)n1Cc1ccccc1 (stereo unspecified)
inactive: dose: 100.0 mg/kg/injection, schedule: Q04DX003 (ip), vehicle: Klucel (hydroxypropylcellulose) (HPC) 94 % of control | dose: 200.0 mg/kg/injection, schedule: Q04DX003 (ip), vehicle: Klucel (hydroxypropylcellulose) (HPC) 92 % of control | dose: 400.0 mg/kg/injection, schedule: Q04DX003 (ip), vehicle: Klucel (hydroxypropylcellulose) (HPC) 89 % of control

NCc1cc2c3c(c1)CCCN3CCC2
inactive: dose: 12.5 mg/kg/injection, schedule: Q01DX001 (ip), vehicle: saline 111 % of control | dose: 12.5 mg/kg/injection, schedule: Q01DX009 (ip), vehicle: saline 97 % of control | dose: 25.0 mg/kg/injection, schedule: Q01DX001 (ip), vehicle: saline 107 % of control | [11] 97 % of control | dose: 50.0 mg/kg/injection, schedule: Q01DX001 (ip), vehicle: saline 105 % of control | [12] 104 % of control

CC(=O)CC(C)(C)C
inactive: dose: 100.0 mg/kg/injection, schedule: Q01DX001 (ip), vehicle: saline 102 % of control | dose: 200.0 mg/kg/injection, schedule: Q01DX001 (ip), vehicle: saline 98 % of control | dose: 400.0 mg/kg/injection, schedule: Q01DX001 (ip), vehicle: saline 91 % of control

CC1=CC(C)(C)NC(=S)N1c1cccc([N+](=O)[O-])c1
inactive: dose: 224.0 mg/kg/injection, schedule: Q01DX Z (ip), vehicle: methylcellulose (MC) 88 % of control | dose: 334.0 mg/kg/injection, schedule: Q01DX Z (ip), vehicle: methylcellulose (MC) 89 % of control | dose: 500.0 mg/kg/injection, schedule: Q01DX Z (ip), vehicle: methylcellulose (MC) 94 % of control

C#CC(OC(=O)c1cc([N+](=O)[O-])cc([N+](=O)[O-])c1)C1OC(C)(C)OC1C1COC(C)(C)O1 (stereo unspecified)
inactive: [5] 106 % of control | [7] 106 % of control | [9] 106 % of control

O=C1CCC(N2C(=O)C3C4CCC(CC4)C3C2=O)C(=O)N1 (stereo unspecified)
inactive: [6] 104 % of control | [8] 96 % of control | [10] 100 % of control

CC(=O)/C(C)=C/C=O
inactive: dose: 0.78 mg/kg/injection, schedule: Q01DX009 (ip), vehicle: water 100 % of control | dose: 1.56 mg/kg/injection, schedule: Q01DX009 (ip), vehicle: water 102 % of control | dose: 3.12 mg/kg/injection, schedule: Q01DX009 (ip), vehicle: water 94 % of control | dose: 3.12 mg/kg/injection, schedule: Q04DX003 (ip), vehicle: water 95 % of control | dose: 6.25 mg/kg/injection, schedule: Q01DX009 (ip), vehicle: water 102 % of control | dose: 6.25 mg/kg/injection, schedule: Q04DX003 (ip), vehicle: water 101 % of control | dose: 12.5 mg/kg/injection, schedule: Q01DX009 (ip), vehicle: water 107 % of control | dose: 12.5 mg/kg/injection, schedule: Q04DX003 (ip), vehicle: water 100 % of control and 101 % of control

CCCCCCCCCCCCCCCC[N+]1(C)CCN(SN2CC[N+](C)(CCCCCCCCCCCCCCCC)CC2)CC1
inactive: [11] 98 % of control | [12] 105 % of control | [1] 86 % of control
